Data as given in patent US20260138990A1, “TRICYCLIC FUSED IMIDAZOLE COMPOUNDS AS CD38 MODULATORS AND USES THEREOF” (AEOVIAN PHARMACEUTICALS, INC., priority 2023, published 2026).

Key:
human CD38 = molecular target: T1, human CD38 (Homo sapiens, UniProt P28907); assay: NAD+ cyclase activity assay with human recombinant CD38 protein (ε-NAD fluorescence); assay type: biochemical; details: 1.9 nM human CD38, substrate ε-NAD, 30 min preincubation, fluorescence 300/410 nm
T1 construct: purchased Bio-Techne GmbH AVI2404
T1 sequence (P28907 1-300): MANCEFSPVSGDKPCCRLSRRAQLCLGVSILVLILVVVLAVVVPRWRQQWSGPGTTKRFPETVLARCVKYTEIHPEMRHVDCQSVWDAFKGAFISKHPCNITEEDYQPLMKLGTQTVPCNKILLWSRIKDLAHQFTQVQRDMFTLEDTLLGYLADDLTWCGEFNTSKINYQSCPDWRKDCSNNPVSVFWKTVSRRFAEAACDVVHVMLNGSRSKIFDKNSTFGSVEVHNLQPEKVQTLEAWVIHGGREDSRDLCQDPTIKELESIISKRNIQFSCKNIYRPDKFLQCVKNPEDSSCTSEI
In short: (§1)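 Twelve-point threefold compound dilutions were given 30 min at room temperature with 0.6 nM mouse or 1.9 nM human CD38 before […] ε-NAD was added (pH 7.5 HEPES/sucrose/Tween buffer). The rate came from the linear-phase slope of ex 300/em 410 nm fluorescence against vehicle and no-CD38 controls.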

mouse CD38 = molecular target: T2, mouse CD38 (Mus musculus, UniProt P56528); assay: NAD+ cyclase activity assay with mouse recombinant CD38 protein (ε-NAD fluorescence); assay type: biochemical; details: 0.6 nM mouse CD38, substrate ε-NAD, 30 min preincubation, fluorescence 300/410 nm
T2 construct: purchased Bio-Techne GmbH 4947-AC
T2 sequence (P56528 1-304): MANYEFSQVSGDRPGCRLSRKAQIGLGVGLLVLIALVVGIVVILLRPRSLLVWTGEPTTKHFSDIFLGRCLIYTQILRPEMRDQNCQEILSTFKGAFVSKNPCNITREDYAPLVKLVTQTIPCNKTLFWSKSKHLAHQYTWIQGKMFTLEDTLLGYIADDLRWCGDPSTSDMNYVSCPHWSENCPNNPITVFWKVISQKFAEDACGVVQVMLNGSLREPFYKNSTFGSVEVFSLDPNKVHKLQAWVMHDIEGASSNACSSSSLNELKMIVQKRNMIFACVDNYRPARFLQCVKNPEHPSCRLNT
In short: as §1

Row | Compound | IC50 (human CD38) | IC50 (mouse CD38)
1 | CC1(NC(=O)c2cc(F)c3c(c2)-c2cncn2CCO3)CCS(=O)(=O)C1 (centres unmarked) [Compound 169A, 8-Fluoro-N-(3-methyl-1,1-dioxidotetrahydrothiophen-3-yl)-5,6-dihydrobenzo[f]imidazo[1,5-d][1,4]oxazepine-10-carboxamide] | 30 to 100 nM | 10 to 100 nM
2 | O=C(N[C@H]1CC[C@H](OC2CC(F)(F)C2)CC1)c1cc(Cl)c2c(c1)-c1cncn1CCO2 [Compound 172A, N-((1r,4r)-4-(3,3-difluorocyclobutoxy)cyclohexyl)-8-chloro-5,6-dihydrobenzo[f]imidazo[1,5-d][1,4]oxazepine-10-carboxamide] | < 30 nM | 1 to 10 nM
3 | O=C(N[C@H]1CC[C@@H](OC2CC(F)(F)C2)CC1)c1cc(Cl)c2c(c1)-c1cncn1CCO2 [Compound 173A, N-((1s,4s)-4-(3,3-difluorocyclobutoxy)cyclohexyl)-8-chloro-5,6-dihydrobenzo[f]imidazo[1,5-d][1,4]269xazepane-10-carboxamide] | 100 to 1000 nM | 10 to 100 nM
4 | N-((1r,4r)-4-((Tetrahydrofuran-2-yl)methoxy)cyclohexyl)-5,6-dihydrobenzo[f]imidazo[1,5-d][1,4]oxazepine-10-carboxamide [Compound 76A] | < 30 nM | 1 to 10 nM
5 | N-((1s,4s)-4-((Tetrahydrofuran-2-yl)methoxy)cyclohexyl)-5,6-dihydrobenzo[f]imidazo[1,5-d][1,4]oxazepine-10-carboxamide [Compound 75A] | > 1000 nM | > 100 nM

The next lines start with the values.

Row | IC50 (human CD38) | IC50 (mouse CD38) | Compound
6 | 30 to 100 nM | 1 to 10 nM | CC(C)(CO[C@H]1CC[C@H](NC(=O)c2cc(Cl)c3c(c2)-c2cncn2CCO3)CC1)C(F)(F)F [Compound 170A, 8-Chloro-N-((1r,4r)-4-(3,3,3-trifluoro-2,2-dimethylpropoxy)cyclohexyl)-5,6-dihydrobenzo[f]imidazo[1,5-d][1,4]oxazepine-10-carboxamide]
7 | > 1000 nM | > 100 nM | CC(C)(CO[C@H]1CC[C@@H](NC(=O)c2cc(Cl)c3c(c2)-c2cncn2CCO3)CC1)C(F)(F)F [Compound 171A, 8-Chloro-N-((1s,4s)-4-(3,3,3-trifluoro-2,2-dimethylpropoxy)cyclohexyl)-5,6-dihydrobenzo[f]imidazo[1,5-d][1,4]oxazepine-10-carboxamide]
8 | < 30 nM | 1 to 10 nM | C[C@@H]1CCC[C@H](C)[C@H]1NC(=O)c1cc(F)c2c(c1)-c1cncn1CCO2 [Compound 176A, N-(trans-2-trans-6-Dimethylcyclohexyl)-8-fluoro-5,6-dihydrobenzo[f]imidazo[1,5-d][1,4]oxazepine-10-carboxamide]
9 | < 30 nM | 1 to 10 nM | C[C@@H]1CCC[C@H](C)[C@@H]1NC(=O)c1cc(F)c2c(c1)-c1cncn1CCO2 [Compound 178A, N-(cis-2-cis-6-Dimethylcyclohexyl)-8-fluoro-5,6-dihydrobenzo[f]imidazo[1,5-d][1,4]oxazepine-10-carboxamide]
10 | < 30 nM | 1 to 10 nM | N-((1r,4r)-4-((1-(Trifluoromethyl)cyclopropyl)methoxy)cyclohexyl)-5,6-dihydrobenzo[f]imidazo[1,5-d][1,4]oxazepine-10-carboxamide [Compound 142A]
